Key:
[1] = tested on: Pseudocercosporella herpotrichoides (Psdche); test: In vitro fungicidal evaluation, mycelial growth inhibition in nutrient broth; assay type: cell-based; conditions: 25 ppm, 3-4 days at 21°C, rated visually; further: ranges in brackets are in %
Description: (§1) Test compounds are dissolved or suspended in acetone and dispersed into cell well plates containing a suspension of ground fungal mycelia in a nutrient broth. Assay plates are incubated for 3-4 days at 21°C. Growth inhibition is measured visually and is rated using the following scale:
(§2) Untreated controls, solvent blanks and reference standards are included in each test.
(§3) Assay fungi include the plant pathogens, Pythium ultimum (Pythul); Rhizoctonia solani (Rhizso); Fusarium oxysporum f. sp. cucumerinum (Fusoxc); and Pseudocercosporella herpotrichoides (Psdche).
(§4) When more than one test is run, the data are averaged. The compouds evaluated are reported by compound number given in Example 5.

[2] = tested on: Fusarium oxysporum f. sp. cucumerinum (Fusoxc); test: as above; assay type: cell-based; conditions: 25 ppm, 3-4 days at 21°C, rated visually; further: ranges in brackets are in %
Description: as §1, §2, §3, §4

Pythium ultimum (Pythul) = test: as above; assay type: cell-based; conditions: 25 ppm, 3-4 days at 21°C, rated visually; further: ranges in brackets are in %
Description: as §1, §2, §3, §4

[3] = tested on: Rhizoctonia solani (Rhizso); test: as above; assay type: cell-based; conditions: 25 ppm, 3-4 days at 21°C, rated visually; further: ranges in brackets are in %
Description: as §1, §2, §3, §4

Botrytis cinerea = test: In vivo fungicidal evaluation, Pepper Botrytis; conditions: 200 ppm, host plants sprayed, dried, then inoculated; further: ranges in brackets are in %
Cercospora beticola = test: In vivo fungicidal evaluation, Sugar Beet Cercospora; conditions: 200 ppm, host plants sprayed, dried, then inoculated; further: ranges in brackets are in %
Alternaria solani = test: In vivo fungicidal evaluation, Tomato Early Blight; conditions: 200 ppm, host plants sprayed, dried, then inoculated; further: ranges in brackets are in %
[4] = tested on: Tetranychus urticae (OP-resistant strain), 2-spotted spider mite; test: Acaricide evaluation, 2-spotted spider mite plant dip; assay type: in vivo; conditions: 300 ppm, 2 days, adult kill
Description: (§5) The following tests show the efficacy of the compounds as insecticides and acaricides. The evaluations are conducted with solutions of test compounds dissolved or dispersed in 50/50 acetone/water mixtures. The test compound is technical material dissolved or dispersed in said acetone/water mixtures in sufficient amounts to provide the concentrations set forth in Table I below. All concentrations reported herein are in terms of active ingredient. All tests are conducted in a laboratory maintained at about 27 °C. The rating system employed is as follows:
Sieva lima bean plants with primary leaves expaned to 7 to 8 cm are selected and cut back to one plant per pot. A small piece is cut from a leaf taken from the main colony and placed on each leaf of the test plants. This is done about 2 hours before treatment to allow the mites to move over to the test plant and to lay eggs. The size of the cut piece is varied to obtain about 100 mites per leaf. At the time of the treatment, the piece of leaf used to transfer the mites is removed and discarded. The mite-infested plants are dipped in the test formulation for 3 seconds with agitation and set in the hood to dry. Plants are kept for 2 days before estimates of adult kill are made.

Plasmopara viticola = test: In vivo fungicidal evaluation, Grape Downy Mildew; conditions: 200 ppm, host plants sprayed, dried, then inoculated; further: ranges in brackets are in %
[5] = tested on: Erysiphe graminis f. sp. tritici; test: In vivo fungicidal evaluation, Wheat Powdery Mildew; conditions: 200 ppm, host plants sprayed, dried, then inoculated; further: ranges in brackets are in %
Pyricularia oryzae = assay type: in vivo; conditions: 200 ppm, host plants sprayed, dried, then inoculated
[6] = tested on: Spodoptera eridania 3rd instar larvae, southern army-worm; test: Insecticide evaluation, southern armyworm leaf dip; assay type: in vivo; conditions: 5 days
Description: as §5
A sieva lima bean leaf expanded to 7 to 8 cm in length is dipped in the test suspension with agitation for 3 seconds and placed in a hood to dry. The leaf is then placed in a 100x10 mm petri dish containing a damp filter paper on the bottom and 10 3rd instar caterpillars. The dish is maintained for 5 days before observations are made of mortality, reduced feeding or any interference with normal moulting.

[7] = tested on: Puccinia recondita f. sp. tritici; test: In vivo fungicidal evaluation, Wheat Leaf Rust; conditions: 200 ppm, host plants sprayed, dried, then inoculated; further: ranges in brackets are in %
[8] = tested on: Diabrotica undecimpunctata howardi, 3rd instar southern corn rootworm; test: Insecticide evaluation, southern corn rootworm soil test; assay type: in vivo; set-up: key: 0 = no effect; 1 = 10-25% kill; 2 = 26-35% kill; 3 = 36-45% kill; 4 = 46-55% kill; 5 = 56-65% kill; 6 = 66-75% kill; 7 = 76-85% kill; 8 = 86-99% kill; 9 = 100% kill; - = No evaluation; conditions: 50 kg/ha (1.25 mg active ingredient per jar), 6 days
Description: as §5
One cc of fine talc is placed in a 30 mL wide-mouth screw-top glass jar. One mL of the appropriate acetone test solution is pipetted onto the talc so as to provide 1.25 mg of active ingredient per jar. The jars are set under a gentle air flow until the acetone is evaporated. The dried talc is loosened, 1 cc of millet seed is added to serve as food for the insects and 25 mL of moist soil is added to each jar. The jars are capped and the contents thoroughly mixed on a Vortex Mixer. Following this, ten 3rd instar rootworms are added to each jar and the jars are loosely capped to allow air exchange for the larvae. The treatments are held for 6 days before mortality counts are made. Missing larvae are presumed dead, since they decompose rapidly and can not be found. The concentration used in this test corresponds to approximately 50 kg/ha.

Venturia inaequalis = test: In vivo fungicidal evaluation, Apple Scab; conditions: 200 ppm, host plants sprayed, dried, then inoculated; further: ranges in brackets are in %
[9] = tested on: Heliothis virenscens, 3rd instar tobacco budworm; test: Insecticide evaluation, tobacco budworm cotton cotyledon dip; assay type: in vivo; conditions: 300 ppm, 3 days
Description: as §5
Cotton cotyledons are dipped in the test formulation and allowed to dry in a hood. When dry, each is cut into quarters and ten sections placed individually in 30 mL plastic medicine cups containing a 5 to 7 mm long piece of damp dental wick. One 3rd instar caterpillar is added to each cup and a cardboard lid placed on the cup. Treatments are maintained for 3 days before mortality counts and estimates of reduction in feeding damage are made.

Compound | PSDCHE growth inhibition rating [1] | FUSOXC growth inhibition rating [2] | PHTHUL growth inhibition rating (Pythium ultimum (Pythul)) | RHIZSO growth inhibition rating [3] | PB (Pepper Botrytis) disease control rating (Botrytis cinerea) | SBC (Sugar Beet Cercospora) disease control rating (Cercospora beticola) | TEB (Tomato Early Blight) disease control rating (Alternaria solani) | OP. Res. Mites kill rating [4] | GDM (Grape Downy Mildew) disease control rating (Plasmopara viticola) | WPM (Wheat Powdery Mildew) disease control rating [5] | RB (Rice Blast) disease control rating (Pyricularia oryzae) | Southern Armyworm kill rating ([6]; 1000 ppm) | WLR (Wheat Leaf Rust) disease control rating [7] | Southern Corn Rootworm kill rating [8] | AS (Apple Scab) disease control rating (Venturia inaequalis) | Tobacco Budworm Larvae kill rating [9] | Southern Armyworm kill rating ([6]; 300 ppm)
C[B-](c1ccccc1)(c1ccccc1)[n+]1cccc(Br)c1 [Compound 18, (3-Bromopyridinio)methyldiphenylboron] | 9 (100) | 7 (90 - 99) | 7 (90 - 99) | 7 (90 - 99) | 8 (96 - 99) | 6 (75 - 89) | 4 (45 - 59) | 7 (7 = 76-85% kill) | 4 (45 - 59) | 0 (0) | 5 (60 - 74) | 9 (9 = 100% kill) | 0 (0) | 0 | 0 (0) |  | 
(3-Ethyl-4-methylpyridinio)methyldiphenylboron [Compound 5] | 9 (100) | 9 (100) | 9 (100) | 9 (100) | 0 (0) | 0 (0) | 8 (96 - 99) | 8 (8 = 86-99% kill) | 9 (100) | 9 (100) | 0 (0) | 9 (9 = 100% kill) | 8 (96 - 99) | 9 (9 = 100% kill) | 0 (0) |  | 
(4-Bromoisoquinolinio)bis(p-fluorophenyl)methylboron [Compound 14] | 9 (100) | 9 (100) | 9 (100) | 9 (100) | 9 (100) | 7 (90 - 95) | 0 (0) | 9 (9 = 100% kill) | 7 (90 - 95) | 0 (0) | 8 (96 - 99) | 9 (9 = 100% kill) | 0 (0) | 5 (5 = 56-65% kill) | 8 (96 - 99) |  | 
(4-Isopropylpyridinio)methyldiphenylboron [Compound 1] | 9 (100) | 9 (100) | 7 (90 - 99) | 9 (100) | 7 (90 - 95) | 0 (0) | 7 (90 - 95) | 8 (8 = 86-99% kill) | 9 (100) | 8 (96 - 99) | 7 (90 - 95) |  | 8 (96 - 99) | 0 | 9 (100) | 8 (8 = 86-99% kill) | 8 (8 = 86-99% kill)
(Isoquinolinio)methyldiphenylboron [Compound 6] | 9 (100) | 9 (100) | 9 (100) | 7 (90 - 99) | 0 (0) | 0 (0) | 0 (0) | 8 (8 = 86-99% kill) | 9 (100) | 8 (96 - 99) | 6 (75 - 89) |  | 9 (100) | 9 (9 = 100% kill) | 9 (100) | 8 (8 = 86-99% kill) | 9 (9 = 100% kill)
Methyl(3-methylpyridinio)diphenylboron [Compound 2] | 9 (100) | 9 (100) | 9 (100) | 9 (100) | 0 (0) | 0 (0) | 0 (0) | 9 (9 = 100% kill) | 9 (100) | 8 (96 - 99) | 7 (90 - 95) | 9 (9 = 100% kill) | 8 (96 - 99) | 9 (9 = 100% kill) | 9 (100) |  | 

Reference: patent EP0624315B1, “Diaryl(pyridinio and isoquinolinio) boron fungicidal agents” (AMERICAN CYANAMID COMPANY, priority 1993, dated 1994)
